The results in this text go back to US8101389B2, “Bacterial glutamine synthetases and methods of use” (Athenix Corp, priority 2006, dated 2012).

Assay [1] addresses T1, Serratia marcescens ATX 20345 glutamine synthetase AGS1, wild type, SEQ ID NO:2 (Serratia marcescens, UniProt A0A0F6KS08).
T1 construct: gene cloned as pAX685; dodecamer from known biology
The experiment in a line: enzymatic assay, kinetics of wild-type AGS1. In kind it is biochemical. The text has this: ags1m1 (pAX3421) and ags1m2 (pAX3422) were subcloned into E. coli expression vector pRSF1B (Invitrogen) so as to create an N-terminus encoding a 6Xhis tag, purified and characterized kinetically.
ags1m21 (SEQ ID NO:41) encodes the AGS1m21 protein (SEQ ID NO:42). AGS1m21 is a variant of AGS1 that contains a similar amino acid change identified in other variants (V214M), as well as two novel mutations (N160S and G167R). This enzyme was expressed in E. coli, purified, and the kinetic values Km(glutamate) and Ki(glufosinate) of the variant measured by enzymatic assay.
The unmodified enzyme (AGS1) was compared to AGS1(AD-) and AGS1m17(AD-) by carrying out enzymatic assays on both enzymes following purification from E. coli. A glutamine synthetase enzyme from E. coli (GlnA) was also tested.

Assay [2] concerns E. coli cells with AGS1 variant AGS1m17, F81S, P185S, H212T, V214A, G218S, I303N, SEQ ID NO:34. The experiment in a line: growth of E. coli on glufosinate plates, ags1m17. The class given is cell-based. The procedure:
(§1) Clones expressing AGS1m17, AGS1m18, AGS1m19, or AGS1m20 were all found to be able to grow on plates containing 375 mM glufosinate, whereas no growth of clones expressing AGS1m16 was observed on plates containing 375 mM glufosinate.

The test system of assay [3] is E. coli cells with AGS1 variant AGS1m18, F81S, P185S, H212T, V214S, G218S, I303N, SEQ ID NO:36. The experiment in a line: growth of E. coli on glufosinate plates, ags1m18. In kind it is cell-based. The procedure: as §1
The subject of assay [4] is E. coli cells with AGS1 variant AGS1m19, F81S, P185S, H212S, V214A, G218S, I303N, SEQ ID NO:38. Put plainly: growth of E. coli on glufosinate plates, ags1m19. The class given is cell-based. The procedure:
as §1

The test system of assay [5] is Serratia marcescens ATX 20345. Put plainly: growth of strain ATX 20345 in glufosinate. The class given is cell-based. The note with it: minimal medium; growth above 50 mM was not tested. Here is the method:
A glufosinate resistant bacterial strain (ATX 20345) was isolated from a soil sample via a soil suspension by placing approximately 0.01 grams soil in 500 μl sterile water. The soil suspension was vortexed, and 20 μl was used to inoculate a 2.5 ml minimal medium culture supplemented with 5 mM glufosinate (Riedel-de Habël, available through Sigma-Aldrich, St. Louis, Mo.). The minimal medium contains the following ingredients (per 1 liter): 10 grams sucrose, 1 ml 0.8M MgSO4, 1 ml 0.1M CaCl2, 1 ml trace elements, 2.38 grams KH2PO4, 5.64 grams K2HPO4. The pH is adjusted to 7.0, and the solution is sterilized with a 0.2 μm filter. Trace elements consist of (per 100 ml) 0.1 g FeSO4.7H2O, 0.5 mg CuSO4.5H2O, 1.0 mg H3BO3, 1.0 mg MnSO4.5H2O, 7.0 mg ZnSO4.7H2O, 1.0 mg MoO3, 4.0 g KCl. No additional nitrogen source was provided in the medium. Cultures were grown at 21° C. on a rotary shaker for 3 days then transferred to fresh minimal medium containing 5 mM glufosinate and incubated at 21° C. After 2 days, the cultures were used to inoculate fresh minimal medium with 5 mM glufosinate. After 2 days, the cultures were plated onto Luria Bertani (LB) agar and then restruck for isolation. […] Colonies on LB agar are pinkish-red, raised, circular, and 1-2 mm in diameter. ATX20345 was typed by fatty acid analysis (as known in the art), and determined to be a strain of Serratia marcescens. […]

The term Ki denotes the dissociation constant of the complex between target and ligand, obtained from inhibition or displacement.

T1 sequence (A0A0F6KS08 entry or part of it): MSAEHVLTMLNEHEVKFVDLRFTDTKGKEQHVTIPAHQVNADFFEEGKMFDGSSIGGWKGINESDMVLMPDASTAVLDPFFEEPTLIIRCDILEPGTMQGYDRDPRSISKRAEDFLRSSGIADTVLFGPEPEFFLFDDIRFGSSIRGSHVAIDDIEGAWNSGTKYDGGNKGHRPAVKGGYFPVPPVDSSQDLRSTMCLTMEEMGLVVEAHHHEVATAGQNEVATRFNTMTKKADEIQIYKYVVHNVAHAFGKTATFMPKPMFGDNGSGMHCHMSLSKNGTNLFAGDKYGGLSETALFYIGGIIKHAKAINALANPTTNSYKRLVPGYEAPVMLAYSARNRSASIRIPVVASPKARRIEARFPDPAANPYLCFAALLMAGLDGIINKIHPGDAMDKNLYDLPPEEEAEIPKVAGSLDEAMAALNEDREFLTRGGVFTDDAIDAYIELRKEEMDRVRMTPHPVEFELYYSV

Take `CP(=O)(O)CCC(N)C(=O)O` (stereo not shown) [glufosinate]: the Ki in assay [1] worked out at 13 µM. Moreover, the inhibition by glufosinate result in assay [1] (100 uM glufosinate) is “completely inhibited”. In addition, the “(Kcat*Ki)/Km” value in assay [1] (Table 5, Km glutamate, Ki glufosinate) was determined as 0.32. Besides, the “growth on plates containing 375 mM glufosinate” value in assay [2], in assay [3] and in assay [4] was “able to grow” each time. In addition, the “glufosinate concentration through which ATX 20345 grows well” value in assay [5] is at least 50 mM.
